What was measured:
large crabgrass = test: Large crabgrass control with nicosulfuron as influenced by adjuvants (greenhouse); type: in vivo; details: nicosulfuron 0.2 oz/A, no adjuvant, 3 WAT
Description: TABLE 2 includes the results of assessment made 3 WAT (weeks after treatment). Visible injury rating is on a scale 0 to 100% with 0% representing no visible injury and 100% complete kill.

green foxtail = test: Green foxtail control with nicosulfuron as influenced by adjuvants (greenhouse); type: in vivo; details: nicosulfuron 0.04 oz/A, no adjuvant; 2 WAT
Description: TABLE 3 includes the results of assessment made 2 WAT (weeks after treatment).

Compound: COc1cc(OC)nc(NC(=O)NS(=O)(=O)c2ncccc2C(=O)N(C)C)n1 [nicosulfuron]
- % fresh weight reduction (large crabgrass): 57%
- % visible injury (large crabgrass; scale 0-100%): 31%
- % fresh weight reduction (green foxtail): 0%

From US6642178B2, “Adjuvant blend for enhancing efficacy of pesticides” (priority 2001, dated 2003)
